Source: US6929935B2, “Gluconobacter oxydans 2-ketoreductase enzyme and applications thereof” (Bristol-Myers Squibb Company, priority 2001, dated 2005)

Tested on: G. oxydans 2-ketoreductase
Experiment: Reduction of alkylketones with extract of E. coli expressing recombinant 2-ketoreductase, analysed by gas chromatography
Assay type: biochemical, Gluconobacter oxydans
Settings: NAD+/formate/formate dehydrogenase, 28° C., 16 hr; for % Conversion: 2 mg 2-ketone, 0.5 ml E. coli pBMS2000-KR extract, ketone to 2-alcohol
Method: Analysis of enantiomeric alcohols by gas chromatography: Samples were extracted in ethyl acetate and dried over anhydrous magnesium sulfate. Samples were then applied onto a Astec Chiraldex G-TA, gamma cyclodextrin column (20 m×0.25 mm×0.125 μm thickness; Astec, Whippany, N.J.) equipped with a guard column (Hewlett-Packard Ultra II, 5% phenyl methyl silicone, 5 m×0.32 mm×0.17 μm thickness; Agilent Technologies, Palo Alto, Calif.). The temperature of the injector was set at 150° C. and the detector of the chromatograph (Hewlett-Packard 5890) was set at 200° C. Detection was carried out with a flame ionization detector (Agilent Technologies). The separation was carried out by a gradient under the following conditions: 28° C. for 15 minutes, 5° C./min to 50° C. and hold 5 minutes. The helium flow rate was maintained at 22 cm/min. Under these conditions, the retention times for S-2-pentanol, R-2-pentanol, and 2-pentanone were 10.85, 11.67 and 17.84 minutes respectively.
The reaction contained 0.18 mg NAD+, 30 mg sodium formate, 0.3 units formate dehydrogenase (Sigma, St. Louis, Mo.), 2 mg 2-pentanone, and 0.5 ml of extract from an E. coli (BL21(DE3)) culture containing the pBMS2000-KR plasmid and expressing the ketoreductase. Alternatively, P. pastoris formate dehydrogenase (see S. Goldberg et al.: U.S. Provisional Patent Application Ser. No. 60/341,934 filed Dec. 19, 2001; U.S. Provisional Application Ser. No. 60/375,530 filed Apr. 25, 2002; and U.S. patent application Ser. No. 10/320,300; the contents of which are hereby incorporated by reference in their entirety) can be substituted for the commercial formate dehydrogenase. Cell extracts were obtained as follows: 2 g recombinant cells was suspended in 10 ml Buffer A (50 mM Tris-HCl, pH 7.5, 1 mM CaCl2, and 1 mM MgCl2). The resuspended cells were sonicated for 2 min (20 sec pulse “on” and 30 sec pulse “off”) using Model 550 Sonic Dismembrator (Misonix Inc., Farmingdale, N.Y.). The resulting mixture was centrifuged for 15 min at 8000 rpm at 4° C. The supernatant was removed and used for reduction reactions. The reactions were carried out in a culture tube at 28° C. with shaking at 200 rpm. After 16 hr, samples were quenched with 2 ml of ethyl acetate and analyzed by gas chromatography (described earlier).
The reactions contained 0.18 mg NAD+, 30 mg sodium formate, 0.3 units formate dehydrogenase (purchased from Sigma), 2 mg 2-ketones, and 0.5 ml of extract from the E. coli culture containing the pBMS2000-KR plasmid and expressing the ketoreductase (described above). The reactions were carried out in a culture tube at 28° C. on a shaker at 200 rpm. The end of 16 hr, samples were quenched with 2 ml of ethyl acetate and analyzed by gas chromatography (described earlier).

CCCCCCCCC(C)=O [2-Decanone]
% Conversion: >98%

CCCCCC(C)=O [2-Heptanone]
% Conversion: >98%

CCCCCCC(C)=O [2-Octanone]
% Conversion: >98%

CCCC(C)=O [2-pentanone]
reduction of the substrate to 2-pentanol using recombinant enzyme (2 mg substrate, 0.5 ml E. coli BL21(DE3) pBMS2000-KR extract): complete reduction
